From patent publication US20220288052A1, “COMPOUND FOR COMBINATION TREATMENT” (priority 2019, published 2022)
Read-outs that look alike come from different tables or passages of the source.

Columns and labels:
[1] = system: rat corpus cavernosum strips; test: Corpus cavernosum contractility
Protocol: FIG. 29: Original traces showing the effect of compound (I) on resting tone in rat corpus cavernosum strips. Increasing concentrations (10^−9-3×10^−5 M) of compound (I) were added. Compound (I) induced small relaxations, while at the highest concentration (3×10^−5 M) contraction was observed occasionally (lower trace).
FIG. 30: Average results showing the effect of compound (I) on resting tone in rat corpus cavernosum strips. Increasing concentrations (10^−9-3×10^−5 M) of compound (I) were added. Compound (I) induced small relaxations, while at the highest concentration (3×10^−5 M) contraction was observed occasionally (lower trace). Compound (I) responses were obtained in the presence of vehicle, sildenafil (10^−7 M), guanethidine (10^−5 M), and L-NOARG (10^−4 M). Results are means±s.e. mean of preparations from 5 rats.
FIG. 31: Original traces showing relaxations to compound (I) in rat corpus cavernosum strips contracted with phenylephrine (Phe). Representative traces show compound (I) relaxation in the presence of vehicle, guanethidine (10^−5 M), L-NOARG (10^−4 M), sildenafil (10^−7 M), in phenylephrine-contracted preparations.
FIG. 32: Average relaxations induced by compound (I) in rat corpus cavernosum strips. In phenylephrine-contracted preparations, increasing concentrations (10^−9-3×10^−5 M) of compound (I). […]

[2] = system: brain levels of serotonin (5-HT); test: In vivo microdialysis, 5-HT; design: species or system rat
Protocol: The purpose of the present study was to examine, by in vivo microdialysis technique, the effects after administration of compound (I) on brain levels of serotonin, noradrenalin and dopamine within the ventral hippocampus (Hipp), prefrontal cortex (PFC), striatum (STR) and nucleus accumbens (N.Acc) of anaesthetized rats and mice. […] Compound (I) was tested following subcutaneous injections at dose levels between 0.25-30 mg/kg.

CYP 2D6 = CYP 2D6 (Homo sapiens, UniProt P10635); test: CYP450 inhibition, cocktail of selective substrates, 2D6; format: in vitro ADME; conditions: CYP 2D6, Bufuralol to 1′-hydroxybufuralol; read-out: IC50 of compound (I)
Protocol: (§1) Compound (I) was tested for CYP450 inhibition using a cocktail of selective substrates. […] This might be addressed later in a clinical study.

CYP 3A4 = CYP 3A4 (Homo sapiens, UniProt P08684); test: CYP450 inhibition, cocktail of selective substrates, 3A4; format: in vitro ADME; conditions: CYP 3A4, Midazolam to 1′-hydroxymidazolam; read-out: IC50 of compound (I)
Protocol: as §1

DA transporter [3] = molecular target: DA transporter (Rattus norvegicus, UniProt P23977); test: ^3H-uptake rat, DA transporter; format: biochemical
Excerpt: (§2) Compound (I) has been characterized as a monoamine reuptake inhibitor, based on the profile in a series of functional assays (Table 2).

Nicotinic α4β2 = Nicotinic α4β2 (Rattus norvegicus, UniProt P09483+P12390); test: In-house nicotinic binding assay, Nicotinic α4β2
CYP 2C19 = CYP 2C19 (Homo sapiens, UniProt P33261); test: CYP450 inhibition, cocktail of selective substrates, 2C19; format: in vitro ADME; conditions: CYP 2C19, Omeprazole to 5-hydroxyomeprazole; read-out: IC50 of compound (I)
Protocol: as §1

[4] = Linearity after single s.c. dose in rat; format: in vivo; conditions: for AUC(0-inf) / Cmax / bioavailability / half-life: Wistar, rat; for AUC(0-inf) / Cmax / bioavailability / half-life / Tmax: plasma, sc; for half-life: read-out: T½ (converted); for Tmax: male Wistar rat, 5% Tween 80
Nicotinic α7 = Nicotinic α7 (Rattus norvegicus, UniProt Q05941); test: In-house nicotinic binding assay, Nicotinic α7
DA transporter [5] = molecular target: T1, DA transporter (Mus musculus, UniProt Q61327); test: In vivo ^3H-WIN 35.428 binding (DA transporter occupancy), PD/PK
T1 construct: in vivo DAT transporter occupancy (open bars) in mouse striatum; from tissue; host or cells: mouse striatum (in vivo; C57 mice in the MPTP model)
Protocol: The relationship between brain concentrations of compound (I) and transporter occupancy was investigated in in vivo ^3H-WIN 35.428 binding in mice. A relationship between increasing plasma and brain concentrations with each increase in dose level, and a corresponding increase in CNS in vivo DA transporter occupancy 90 min post administration. In both cases there was a close correlation between plasma and brain concentrations and in vivo transporter occupancy in brain, the brain to plasma ratio was approximately 4 at 3, 10 and 30 mg/kg (FIG. 1). […] The inhibition of in vivo WIN binding was measured 90 min after p.o. administration of the compound.
The in vivo receptor occupancy (RO %) of compound (I) was calculated at the MED values (DOSE) in mFST and in the mouse motility test using the formula RO % (estimated)=DOSE 100/(ED50+DOSE). The calculations were based on ED50 values in ex vivo uptake of 5-HT and NA and WIN in vivo binding.
It is known that the critical factor for psychomimetic side effects of a dopaminergic drug is the speed of inhibition of the DA transporter rather than the increase in DA release per se.

NA transporter = NA transporter (Homo sapiens, UniProt P23975); test: ^3H-Nisoxetine binding, human
Excerpt: as §2

T1 sequence (Q61327 whole entry): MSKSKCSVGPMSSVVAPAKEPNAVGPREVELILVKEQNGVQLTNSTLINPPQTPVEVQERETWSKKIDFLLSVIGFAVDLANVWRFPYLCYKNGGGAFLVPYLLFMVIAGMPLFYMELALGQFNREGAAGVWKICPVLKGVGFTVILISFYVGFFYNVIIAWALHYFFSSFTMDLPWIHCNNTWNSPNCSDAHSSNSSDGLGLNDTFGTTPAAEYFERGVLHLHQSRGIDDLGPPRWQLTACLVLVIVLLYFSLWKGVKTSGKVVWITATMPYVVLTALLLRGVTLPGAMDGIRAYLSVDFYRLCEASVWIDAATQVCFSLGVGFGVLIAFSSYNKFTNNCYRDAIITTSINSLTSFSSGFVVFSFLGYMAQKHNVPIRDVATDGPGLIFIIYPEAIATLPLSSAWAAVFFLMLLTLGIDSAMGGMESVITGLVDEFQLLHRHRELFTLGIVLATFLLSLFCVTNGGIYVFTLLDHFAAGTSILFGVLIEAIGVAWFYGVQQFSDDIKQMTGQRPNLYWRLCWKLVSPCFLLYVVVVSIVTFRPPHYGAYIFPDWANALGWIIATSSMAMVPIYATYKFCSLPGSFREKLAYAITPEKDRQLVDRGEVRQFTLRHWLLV
Sequence of Nicotinic α4β2 (P09483 31-630): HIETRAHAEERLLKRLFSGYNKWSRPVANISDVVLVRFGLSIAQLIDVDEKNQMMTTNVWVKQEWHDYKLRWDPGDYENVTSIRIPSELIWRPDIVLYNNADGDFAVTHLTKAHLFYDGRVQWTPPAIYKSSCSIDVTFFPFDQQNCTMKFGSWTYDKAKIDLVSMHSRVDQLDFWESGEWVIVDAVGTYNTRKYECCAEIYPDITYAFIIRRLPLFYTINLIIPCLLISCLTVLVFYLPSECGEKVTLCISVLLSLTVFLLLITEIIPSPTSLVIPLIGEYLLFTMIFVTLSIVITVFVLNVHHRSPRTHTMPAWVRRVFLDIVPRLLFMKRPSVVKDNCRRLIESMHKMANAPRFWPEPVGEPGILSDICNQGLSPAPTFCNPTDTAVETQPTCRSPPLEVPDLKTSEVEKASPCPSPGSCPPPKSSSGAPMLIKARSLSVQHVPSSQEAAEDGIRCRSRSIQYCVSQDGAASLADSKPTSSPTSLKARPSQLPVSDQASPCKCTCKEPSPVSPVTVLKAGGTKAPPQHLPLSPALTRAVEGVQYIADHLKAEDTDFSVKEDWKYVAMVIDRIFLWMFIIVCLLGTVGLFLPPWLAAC
Sequence of Nicotinic α4β2 (P12390 25-500): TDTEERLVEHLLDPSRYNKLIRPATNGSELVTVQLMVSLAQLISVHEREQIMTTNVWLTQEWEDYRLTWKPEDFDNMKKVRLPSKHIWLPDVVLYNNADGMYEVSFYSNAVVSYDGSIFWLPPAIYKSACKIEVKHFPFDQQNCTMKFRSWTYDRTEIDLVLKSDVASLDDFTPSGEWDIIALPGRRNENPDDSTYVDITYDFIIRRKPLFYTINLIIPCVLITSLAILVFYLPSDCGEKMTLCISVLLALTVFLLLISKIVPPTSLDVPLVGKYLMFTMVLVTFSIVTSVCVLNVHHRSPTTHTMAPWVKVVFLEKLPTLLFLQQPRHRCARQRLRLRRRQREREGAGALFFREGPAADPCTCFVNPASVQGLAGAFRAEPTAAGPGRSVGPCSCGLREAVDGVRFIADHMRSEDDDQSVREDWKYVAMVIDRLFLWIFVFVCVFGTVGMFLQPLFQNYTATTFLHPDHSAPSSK
Sequence of CYP 3A4 (P08684 whole entry): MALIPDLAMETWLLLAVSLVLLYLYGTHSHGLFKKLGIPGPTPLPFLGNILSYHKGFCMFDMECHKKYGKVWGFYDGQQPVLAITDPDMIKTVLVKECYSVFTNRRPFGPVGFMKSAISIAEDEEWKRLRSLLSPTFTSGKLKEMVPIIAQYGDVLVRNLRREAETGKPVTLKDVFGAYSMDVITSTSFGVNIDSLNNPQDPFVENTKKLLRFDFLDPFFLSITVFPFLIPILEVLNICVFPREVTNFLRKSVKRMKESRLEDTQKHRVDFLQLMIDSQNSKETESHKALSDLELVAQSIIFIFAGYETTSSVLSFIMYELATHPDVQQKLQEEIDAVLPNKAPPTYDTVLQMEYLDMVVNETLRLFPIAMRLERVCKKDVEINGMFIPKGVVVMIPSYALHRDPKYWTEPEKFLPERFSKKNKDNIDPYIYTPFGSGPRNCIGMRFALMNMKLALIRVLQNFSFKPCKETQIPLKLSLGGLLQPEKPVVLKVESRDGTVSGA
Sequence of Nicotinic α7 (Q05941 23-502): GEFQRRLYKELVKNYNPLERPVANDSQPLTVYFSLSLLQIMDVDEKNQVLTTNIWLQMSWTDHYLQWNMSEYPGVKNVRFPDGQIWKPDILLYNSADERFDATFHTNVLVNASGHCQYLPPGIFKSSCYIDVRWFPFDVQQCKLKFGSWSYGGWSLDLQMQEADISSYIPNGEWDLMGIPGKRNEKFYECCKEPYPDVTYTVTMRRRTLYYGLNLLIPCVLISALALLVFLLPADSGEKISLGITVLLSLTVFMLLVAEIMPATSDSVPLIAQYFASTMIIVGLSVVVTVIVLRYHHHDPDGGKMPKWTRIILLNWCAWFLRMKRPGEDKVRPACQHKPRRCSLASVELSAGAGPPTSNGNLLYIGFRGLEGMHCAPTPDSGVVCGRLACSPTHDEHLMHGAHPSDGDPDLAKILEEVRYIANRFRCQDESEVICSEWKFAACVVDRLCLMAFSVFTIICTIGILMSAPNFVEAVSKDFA
Sequence of CYP 2D6 (P10635 whole entry): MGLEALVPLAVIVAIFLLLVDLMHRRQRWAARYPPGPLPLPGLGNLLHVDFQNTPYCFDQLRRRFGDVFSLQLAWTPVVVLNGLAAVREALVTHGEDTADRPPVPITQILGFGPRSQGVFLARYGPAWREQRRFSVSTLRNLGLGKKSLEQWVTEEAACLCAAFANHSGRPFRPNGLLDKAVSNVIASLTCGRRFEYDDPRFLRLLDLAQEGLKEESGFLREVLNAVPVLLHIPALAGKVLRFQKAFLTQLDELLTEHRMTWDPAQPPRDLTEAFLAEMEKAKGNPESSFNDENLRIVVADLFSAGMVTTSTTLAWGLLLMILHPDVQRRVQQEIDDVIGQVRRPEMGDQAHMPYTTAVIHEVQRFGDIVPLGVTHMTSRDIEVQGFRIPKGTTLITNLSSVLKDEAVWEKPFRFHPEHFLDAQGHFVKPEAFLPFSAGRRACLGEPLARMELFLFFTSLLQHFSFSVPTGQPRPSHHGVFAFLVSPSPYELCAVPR
Sequence of DA transporter (Rattus norvegicus, UniProt P23977) (P23977 whole entry): as the sequence (Q61327 whole entry) above, with P21S, V57A, S194A, R600H, V619L counted along it
Sequence of CYP 2C19 (P33261 whole entry): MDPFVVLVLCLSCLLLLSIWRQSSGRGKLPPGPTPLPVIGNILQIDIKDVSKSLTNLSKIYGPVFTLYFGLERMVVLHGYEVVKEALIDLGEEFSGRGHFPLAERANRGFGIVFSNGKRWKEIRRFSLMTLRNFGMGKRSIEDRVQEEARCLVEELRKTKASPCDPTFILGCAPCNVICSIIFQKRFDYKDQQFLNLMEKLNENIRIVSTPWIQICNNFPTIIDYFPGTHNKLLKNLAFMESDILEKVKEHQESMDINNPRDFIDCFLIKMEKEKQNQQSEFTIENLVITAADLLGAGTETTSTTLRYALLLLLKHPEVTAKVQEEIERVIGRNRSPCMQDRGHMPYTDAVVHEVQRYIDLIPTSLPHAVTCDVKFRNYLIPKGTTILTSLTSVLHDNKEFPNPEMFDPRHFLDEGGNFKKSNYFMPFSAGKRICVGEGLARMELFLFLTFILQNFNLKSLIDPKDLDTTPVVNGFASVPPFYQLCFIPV
Sequence of NA transporter (P23975 whole entry): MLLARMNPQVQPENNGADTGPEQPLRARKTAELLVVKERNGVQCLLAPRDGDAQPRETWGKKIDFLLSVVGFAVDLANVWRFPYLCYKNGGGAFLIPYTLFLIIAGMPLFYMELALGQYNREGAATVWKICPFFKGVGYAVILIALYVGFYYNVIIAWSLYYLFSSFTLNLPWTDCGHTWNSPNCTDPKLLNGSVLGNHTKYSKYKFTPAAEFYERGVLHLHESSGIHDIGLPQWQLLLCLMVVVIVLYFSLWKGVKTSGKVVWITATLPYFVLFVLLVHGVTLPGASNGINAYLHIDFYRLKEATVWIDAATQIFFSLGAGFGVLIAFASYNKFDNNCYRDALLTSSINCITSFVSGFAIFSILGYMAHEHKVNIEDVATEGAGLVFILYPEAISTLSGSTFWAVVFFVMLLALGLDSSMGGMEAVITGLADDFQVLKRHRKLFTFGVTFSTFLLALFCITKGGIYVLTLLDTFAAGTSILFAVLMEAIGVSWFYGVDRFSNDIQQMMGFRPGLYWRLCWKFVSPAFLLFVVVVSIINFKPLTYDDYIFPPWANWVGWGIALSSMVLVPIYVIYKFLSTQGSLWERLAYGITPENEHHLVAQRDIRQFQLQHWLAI

## O=c1ccc2ccc(O[C@@H]3C[C@H]4CC[C@@H](C3)N4)cc2o1 [Compound (I), exo-7-(8-aza-bicyclo[3.2.1]oct-3-yloxy)-chromen-2-one]
[1]; resting corpus cavernosum strips, 10^−9-3×10^−5 M
  Effect on resting tone: only small relaxations
[1]; strips contracted with phenylephrine (10^−6 M)
  Relaxation of contracted strips: concentration-dependent relaxations were observed at higher concentrations
[2]; Hippocampus, 3 mg/kg s.c., 3 mg/kg
  5-HT (AUC0-160 min): 433±53%
[2]; N.Acc, 10 mg/kg s.c.
  5-HT (AUC0-160 min): 151 ± 17%
[2]; Pre-frontal cortex, 0.25 mg/kg s.c., 0.25 mg/kg
  5-HT (AUC0-160 min): 190±15%
[2]; Pre-frontal cortex, 1 mg/kg s.c., 1 mg/kg
  5-HT (AUC0-160 min): 252±48%
[2]; Pre-frontal cortex, 10 mg/kg s.c., 10 mg/kg
  5-HT (AUC0-160 min): 263±47%
[2]; Pre-frontal cortex, WAY100365 0.1 mg/kg + compound (I) 0.25 mg/kg
  5-HT (AUC0-160 min): 253 ± 32%
[2]; Striatum, 3 mg/kg s.c.
  5-HT (AUC0-160 min): 138 ± 31%
[2]; Striatum, 10 mg/kg s.c.
  5-HT (AUC0-160 min): 170 ± 12%
CYP 2D6
  IC50: 44 µM
CYP 3A4
  IC50: > 100 µM
DA transporter [3]
  IC50: 0.26 µM
Nicotinic α4β2
  IC50: 31 µM
CYP 2C19
  IC50: > 100 µM
[4]; 1 mg/kg s.c.
  AUC(0-inf): 125 ng·h/mL
  Cmax: 69 ng/mL
  half-life: 40.2 min
  Tmax: 60 min
[4]; 1 mg/kg s.c., compared to 10 mg/kg i.v. in same vehicle
  bioavailability: 117%
[4]; 5 mg/kg s.c.
  Cmax: 320 ng/mL
  half-life: 46.2 min
  Tmax: 60 min
[4]; 5 mg/kg s.c., compared to 10 mg/kg i.v. in same vehicle
  bioavailability: 113%
[4]; 10 mg/kg s.c.
  Cmax: 729 ng/mL
  half-life: 40.8 min
  Tmax: 30 min
[4]; 10 mg/kg s.c., compared to 10 mg/kg i.v. in same vehicle
  bioavailability: 108%
[4]; s.c. dosing in rats
  bioavailability: ~100%
[4]; male, 5 mg/kg s.c.
  AUC(0-inf): 604 ng·h/mL
[4]; male, 10 mg/kg s.c.
  AUC(0-inf): 1150 ng·h/mL
[4]; rats s.c., relatively low doses, single dose
  Linearity of kinetics (AUC versus dose): very nice linear kinetics
Nicotinic α7
  IC50: > 10 µM
DA transporter [5]; estimated at MED in mFST (NMRI mice), DOSE 1 mg/kg
  DA RO %: 9%
DA transporter [5]; estimated at MED in mMotility, DOSE 10 mg/kg
  DA RO %: 50%
DA transporter [5]; mice, 20 mg/kg p.o.
  In vivo WIN binding time course: slow onset of DA transporter blockade in vivo
DA transporter [5]; mouse, brain, po, mice, 3, 10 and 30 mg/kg p.o., 90 min post administration, read-out: Brain to plasma ratio
  Kp at 1.5 h: ~4
DA transporter [5]; mouse, po, read-out: ED50 in WIN in vivo binding in mice
  ED50: 9.9 mg/kg
NA transporter
  Ki: 0.27 µM
